The numbers were not newly measured in patent publication US11701318B2, “Process of dyeing keratinous material comprising the use of an organosilicon compound, an effect pigment, and a film-forming polymer I” (Henkel AG & Co. KGaA, priority 2019, dated 2023), which cites them from elsewhere.

For the data set the following is noted: 25° C.
Take `CCN(Cc1cccc(S(=O)(=O)[O-])c1)c1ccc(C(=C2C=CC(=[N+](CC)Cc3cccc(S(=O)(=O)[O-])c3)C=C2)c2ccccc2S(=O)(=O)[O-])cc1.[Na+].[Na+]` [Acid Blue 9]: the solubility in water result is recorded as “more than 20 % by weight”. Consider `O=C([O-])c1c(Cl)c(Cl)c(Cl)c(Cl)c1-c1c2c(Br)cc(=O)c(Br)c-2oc2c(Br)c(O)cc(Br)c12.O=C([O-])c1c(Cl)c(Cl)c(Cl)c(Cl)c1-c1c2c(Br)cc(=O)c(Br)c-2oc2c(Br)c(O)cc(Br)c12.[Na+].[Na+]` [Acid Red 92, disodium salt of 3,4,5,6-tetrachloro-2-(1,4,5,8-tetrabromo-6-hydroxy-3-oxoxanthen-9-yl)benzoic acid], for which the solubility in water entry was “greater than 10 g/L”. With “mixture of the sodium salts of mono- and disulfonic acids of 2-(2-quinolyl)-1H-indene-1,3(2H)-dione [Acid Yellow 3]”, the solubility in water was 20 mg/mL. With `Nc1cc(S(=O)(=O)[O-])cc2cc(S(=O)(=O)[O-])c(N=Nc3ccccc3)c(O)c12.[Na+].[Na+]` [Acid Red 33, disodium salt of 5-amino-4-hydroxy-3-(phenylazo)-naphthalene-2,7-disulphonate], the solubility in water is 2.5 mg/mL.

Consider `O=C([O-])C1=NN(c2ccc(S(=O)(=O)[O-])cc2)C(=O)C1N=Nc1ccc(S(=O)(=O)[O-])cc1.[Na+].[Na+].[Na+]` (stereo not drawn) [Acid Yellow 23, trisodium salt of 4,5-dihydro-5-oxo-1-(4-sulfophenyl)-4-((4-sulfophenyl)azo)-1H-pyrazole-3-carboxylic acid], for which the “solubility in water (in words)” value is on record as “highly soluble in water”.

Turning to `O=S(=O)([O-])c1ccc(N=Nc2c(O)ccc3ccccc23)cc1.[Na+]` [Acid Orange 7, sodium salt of 4-[(2-hydroxy-1-naphthyl)azo]benzene sulphonate], the solubility in water result is given as “more than 7 g/L”.
